Assay results published in article PMC7155171, “Probing the Open Global Health Chemical Diversity Library for Multistage-Active Starting Points for Next-Generation Antimalarials” (ACS Infectious Diseases, 2020).

Tests used:
[1] = system: P. berghei liver stage (PbLuc); test: P. berghei luciferase liver stage (PbLuc) assay in HepG2-A16-CD81 hepatocytes; assay type: cell-based, Plasmodium berghei; details: Plasmodium berghei; for IC50: HepG2-A16-CD81, 12pt dose response, read-out: PbLuc 12pt dose response: IC50; for Emax: HepG2-A16-CD81, 48 h, 12pt dose response, maximum inhibition
[2] = biological target: recombinant firefly luciferase (Photinus pyralis, UniProt P08659); test: biochemical; details: dose response; for Emax: maximum inhibition, read-out: rLuc inhibition dose response: Maximum inhibition (%); for IC50: read-out: rLuc inhibition dose response: IC50
[3] = HepG2 cytotoxicity screening (CellTiter-Glo); details: human, uninfected HepG2-A16-CD81 (EGFP) hepatocytes
[4] = system: HepG2-A16-CD81 hepatocytes; test: HepG2 cytotoxicity screening (CellTiter-Glo); details: for HepG2 cytotoxicity 12pt dose response: Maximum inhibition (%): 12pt dose response

Sequence of recombinant firefly luciferase (P08659 whole entry): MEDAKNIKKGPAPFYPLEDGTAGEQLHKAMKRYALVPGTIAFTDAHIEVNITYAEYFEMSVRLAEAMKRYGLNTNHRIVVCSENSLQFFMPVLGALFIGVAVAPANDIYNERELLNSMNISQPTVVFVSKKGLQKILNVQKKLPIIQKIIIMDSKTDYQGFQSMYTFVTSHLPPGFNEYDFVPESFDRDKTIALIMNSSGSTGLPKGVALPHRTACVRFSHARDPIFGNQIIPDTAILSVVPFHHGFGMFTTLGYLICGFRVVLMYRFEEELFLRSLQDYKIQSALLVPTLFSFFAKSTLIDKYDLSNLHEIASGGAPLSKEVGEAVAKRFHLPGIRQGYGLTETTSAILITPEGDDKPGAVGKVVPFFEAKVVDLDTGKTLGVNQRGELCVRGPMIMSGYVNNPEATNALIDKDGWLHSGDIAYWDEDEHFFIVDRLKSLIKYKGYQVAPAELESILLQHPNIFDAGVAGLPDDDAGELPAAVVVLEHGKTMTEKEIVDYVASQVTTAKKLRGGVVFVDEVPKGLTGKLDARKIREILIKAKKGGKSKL

Compound | IC50 [1] | Emax [1] | Emax [2] | IC50 [2] | IC50 [3] | HepG2 cytotoxicity 12pt dose response: Maximum inhibition (%) [4] | inhibition at 2 µM [3] | HepG2 Cytotoxicity primary screen (2uM): % Inhibition [4]
Cc1cnc(NC(=O)c2csc(NC3CCCC3)n2)s1 [UCSD-0752486] | 8.33 µM | 93.6% | 65.8% | 24.8 µM | > 25 µM | 48.7% | – | –
Cc1[nH]/c(=N\C(=O)c2csc(NC3CCCC3)n2)sc1C [UCSD-0752597] | 0.832 µM | 121% | 92.3% | 44.4 µM | 11 µM | 87.9% | 8% | –
O=C(NC1CCCC1)O[C@H]1COCCN(c2nc3ccccc3s2)C1 [UCSD-0785020] | 6.66 µM | 88.1% | 16.5% | > 25 µM | > 25 µM | -1.51% | 0.48% | –
CCS(=O)(=O)N1CCc2ccc(NC(=O)Nc3cccc(C)c3)cc21 [UCSD-0785768] | 3.66 µM | 77.6% | 36.5% | > 50 µM | > 16.6 µM | 52.3% | 27.5% | –
CCS(=O)(=O)N1CCc2ccc(NC(=O)Nc3cccc(F)c3)cc21 [UCSD-0785772] | 9.31 µM | 90.3% | 22.1% | > 25 µM | 17.8 µM | 50.2% | 17.6% | –
Cc1nc(NC(=O)c2c(-n3cnnn3)sc3c2CCCC3)sc1C [UCSD-0786506] | 0.253 µM | 88.6% | 15% | > 50 µM | > 50 µM | 4.09% | 10.9% | –
Cc1nc(NC(=O)c2c(-n3cnnn3)sc(C)c2C)sc1C [UCSD-0786548] | 0.0144 µM | – | 1.63% | > 25 µM | > 25 µM | 8.84% | 4.63% | –
CC(C)Cn1ccc2c(NC(=O)c3n[nH]c4c3CCC4)cccc21 [UCSD-0786893] | 13.6 µM | – | 38.5% | > 25 µM | > 25 µM | 32.3% | – | 3.16%
CCCc1cc(=O)[nH]c(-n2nc(C3CC3)cc2N)n1 [UCSD-0786964] | 4.69 µM | – | 12.2% | > 25 µM | 20.5 µM | 75.4% | -26.2% | –
CC(C)c1cc(=O)[nH]c(-n2nc(C3CC3)cc2N)n1 [UCSD-0786965] | 1.61 µM | 83% | 1.26% | > 25 µM | 18.9 µM | 73.6% | 3.79% | –
Cc1cc(NC(=O)C(C)C)n(-c2nc(C)c(C)c(=O)[nH]2)n1 [UCSD-0786977] | 0.129 µM | 100% | 12.4% | > 50 µM | > 25 µM | 36.8% | – | –
Cc1cc(C(=O)N2CCN(c3nc4c(C(C)C)cccc4s3)CC2)no1 [UCSD-0787009] | 0.822 µM | 98.9% | 34.2% | > 50 µM | > 25 µM | 1.29% | – | –
Cc1cc(C(=O)N2CCN(c3nc4c(C(C)C)cccc4s3)CC2)on1 [UCSD-0787150] | 4 µM | 101% | 11.6% | > 50 µM | > 25 µM | 21.7% | – | –
CCc1cc(=O)[nH]c(-n2nc(C3CC3)cc2NC(=O)C2CC2)n1 [UCSD-0787226] | 0.35 µM | 92.4% | 8.54% | > 25 µM | > 25 µM | 54% | -1.99% | –
CCc1c(C)nc(-n2nc(C3CC3)cc2NC(C)=O)[nH]c1=O [UCSD-0787229] | 0.0826 µM | 97.2% | 16.1% | > 50 µM | > 25 µM | 3.74% | – | –
O=S(=O)(c1ccc(Cl)s1)N1CCN(Cc2nc(-c3ccco3)cs2)CC1 [UCSD-0787251] | 11 µM | 93.6% | 13.6% | > 25 µM | 22 µM | 65.6% | – | 12.14%
